This passage reports EC50 results from PubChem BioAssay AID588495 (Sanford-Burnham Center for Chemical Genomics, 2011).

Structures are written as SMILES. Activity calls are given as the source filed them.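 The calls were made as follows: active = mean EC50 of 20 µM or lower; inactive = the rest.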

This assay deals with Neurotensin receptor type 2 (Homo sapiens) (UniProt O95665). The assay is described as follows: NTR2 agonist activity for selectivity, SAR follow-up, selectivity assay for NTR1 agonist project, imaging, NTR2-U2OS cells, beta-arrestin GFP imaging (AID 588495). Conditions: image-based GFP translocation.
Sequence of Neurotensin receptor type 2 (Homo sapiens) (O95665 whole entry, looked up): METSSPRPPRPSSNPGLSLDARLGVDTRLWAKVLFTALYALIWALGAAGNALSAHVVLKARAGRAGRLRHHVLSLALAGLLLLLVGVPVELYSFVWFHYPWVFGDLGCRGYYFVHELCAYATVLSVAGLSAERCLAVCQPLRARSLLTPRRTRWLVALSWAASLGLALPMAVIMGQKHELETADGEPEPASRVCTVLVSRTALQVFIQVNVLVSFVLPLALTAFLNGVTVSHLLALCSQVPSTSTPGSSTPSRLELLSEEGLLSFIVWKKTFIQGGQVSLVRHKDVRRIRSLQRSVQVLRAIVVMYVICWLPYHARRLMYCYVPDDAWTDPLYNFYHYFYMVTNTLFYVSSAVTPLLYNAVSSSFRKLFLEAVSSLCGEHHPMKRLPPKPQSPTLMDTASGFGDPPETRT
Consider `COc1cccc(OC)c1-c1nc(C(=O)NC2(C(=O)O)C3CC4CC(C3)CC2C4)cn1-c1ccnc2cc(Cl)ccc12` (stereo not drawn), for which the EC50 (commonly the concentration giving half of the maximal effect) was > 40 µM (inactive). Take `COc1cccc(OC)c1-c1cc(C(=O)N[C@@H](CC(C)C)C(=O)O)nn1-c1ccnc2cc(Cl)ccc12`: the EC50 was > 40 µM (inactive). Consider `COc1cc2c3nnc(-c4ccccc4)c-3cn(Cc3ccc(C)cc3)c2cc1OC`, for which the EC50 was > 40 µM (inactive). As for `COc1cccc(OC)c1-c1nc(C(=O)O)cn1-c1ccncc1`, the EC50 was > 40 µM (inactive). On to `COc1cc2nc(-c3ccccc3)nc(N3CCN(c4ccccc4F)CC3)c2cc1OC`, for which the EC50 is > 40 µM (inactive). Regarding `CC(C)C[C@H](NC(=O)c1cn(-c2ccnc3ccccc23)c2ccccc12)C(=O)O`, the EC50 is > 40 µM (inactive).

Regarding `COc1ccc(Cn2c(SCc3ccccc3C)nc3cc(OC)c(OC)cc3c2=N)cc1Cl`, the EC50 is > 40 µM (inactive). Turning to `CCOc1cc2c(N3CCN(c4ccccc4OC)CC3)nc(-c3ccc(OC)c(OC)c3)nc2cc1OC`, the EC50 is > 40 µM (inactive). Turning to `Cc1ccc(-n2ncc3c(N4CCN(c5ccccc5F)CC4)ncnc32)c(C)c1`, the EC50 was > 40 µM (inactive). `CC(C)C[C@H](NC(=O)c1cn(-c2ccnc3ccccc23)c(-c2ccccc2)n1)C(=O)O`: the EC50 is > 40 µM (inactive). As for `COc1ccc(Cn2c(SCc3cccc(C(F)(F)F)c3)nc3cc(OC)c(OC)cc3c2=N)cc1Cl`, the EC50 was > 40 µM (inactive).

For the compound `COc1cc2nc(-c3ccccc3)nc(N3CCN(c4ccccc4)CC3)c2cc1OC`, the EC50 was > 40 µM (inactive).

On to `Cc1ccc(C)c(-n2ncc3c(N4CCN(c5ccccc5)CC4)ncnc32)c1`, for which the EC50 was > 40 µM (inactive). Turning to `Cc1ccc(/C=N/Nc2nc(-c3ccc(S(=O)(=O)N(C)C)cc3)cs2)cc1`, the EC50 was > 40 µM (inactive). Take `COc1cc2c3nnc(-c4ccc(Cl)cc4)c-3cn(Cc3ccc(C)cc3)c2cc1OC`: the EC50 was 19.9 µM. With `COc1ccc(N2CCN(c3nc(C4CCC4)nc4cc(OC)c(OC)cc34)CC2)cc1`, the EC50 is > 40 µM (inactive). Take `COc1cc2c3nnc(-c4ccc(F)cc4)c-3cn(Cc3ccccc3)c2cc1OC`: the EC50 was 6.02 µM.

As for `COc1ccc(Cn2c(SCc3cc(C)ccc3C)nc3cc(OC)c(OC)cc3c2=N)cc1Cl`, the EC50 was > 40 µM (inactive). Take `Cc1ccc(Cn2cc3c(-c4ccc(F)cc4)nnc-3c3ccccc32)cc1`: the EC50 was > 40 µM (inactive). For `O=C(O)c1nc(-c2ccnc3ccccc23)c(-c2ccccc2)s1`, the EC50 was > 40 µM (inactive).

As to `c1ccc(Cn2cc3c(-c4ccccc4)nnc-3c3ccccc32)cc1`, the EC50 was > 40 µM (inactive). In the case of `COc1cccc(OC)c1-c1nc(C(=O)N[C@@H](CC(C)C)C(=O)O)cn1-c1ccnc2ccccc12`, the EC50 is > 40 µM (inactive). Consider `Cc1ccc(-n2ncc3c(N4CCN(c5ccc(Cl)c(Cl)c5)CC4)ncnc32)c(C)c1`, for which the EC50 was > 40 µM (inactive). Consider `COc1ccc(-c2nnc3c4cc(OC)c(OC)cc4n(Cc4ccccc4)cc2-3)cc1`, for which the EC50 was > 40 µM (inactive). With `COc1ccc(-c2nnc3c4cc(OC)c(OC)cc4n(Cc4ccc(C)cc4)cc2-3)cc1`, the EC50 was 5.48 µM. To `COc1ccc(/C=N/Nc2nc(-c3ccc(S(=O)(=O)N(C)C)cc3)cs2)cc1OC` belongs > 40 µM (inactive); to `COc1cc2nc(C3CCC3)nc(N3CCN(c4ccccc4OC)CC3)c2cc1OC`, > 40 µM (inactive). In the case of `COc1cccc2c(C(=O)N[C@@H](CC(C)C)C(=O)O)cn(-c3ccnc4ccccc34)c12`, the EC50 was > 40 µM (inactive).

As to `CN(C)S(=O)(=O)c1ccc(-c2csc(N/N=C/c3ccco3)n2)cc1`, the EC50 was > 40 µM (inactive). As to `Cc1cccc(-n2ncc3c(N4CCN(c5ccccc5)CC4)ncnc32)c1`, the EC50 is > 40 µM (inactive).

`CC(C)C[C@H](NC(=O)c1cn(-c2ccnc3cc(Cl)ccc23)c2ccccc12)C(=O)O`: the EC50 is > 40 µM (inactive). The same measure for `Cc1ccc(-n2ncc3c(N4CCN(c5ccccc5Cl)CC4)ncnc32)c(C)c1`: > 40 µM (inactive). As for `CCCSc1nc2cc(OC)c(OC)cc2c(=N)n1Cc1ccccc1Cl`, the EC50 was > 40 µM (inactive). For the compound `COc1cc2c3nnc(-c4ccc(Cl)cc4)c-3cn(Cc3ccc(F)cc3)c2cc1OC`, the EC50 is 7.78 µM. Regarding `COc1cccc(OC)c1-c1nc(C(=O)N[C@@H](CC(C)C)C(=O)O)cn1-c1cccc2ccccc12`, the EC50 was > 40 µM (inactive).

With `COc1cc2c3nnc(-c4ccc(F)cc4)c-3cn(Cc3cccc(C)c3)c2cc1OC`, the EC50 is 4.47 µM. Take `c1ccc(N2CCN(c3ncnc4c3cnn4-c3ccccc3)CC2)cc1`: the EC50 was > 40 µM (inactive).

As to `CC(C)C[C@H](NC(=O)c1nc(-c2ccnc3ccccc23)c(-c2ccccc2)s1)C(=O)O`, the EC50 is > 40 µM (inactive).
